According to patent US20100144722A1, “NOVEL HETEROCYCLIC COMPOUNDS AS GATA MODULATORS” (Dr. Reddy's Laboratories Ltd., priority 2008, published 2010):

Test system: GATA1
Experiment: GATA Assay (GATA luciferase reporter in transfected HepG2 cells)
Type: cell-based, Human
Conditions: HepG2 cells transfected with GATA Translucent Reporter Vector, luciferase normalized to total protein
Procedure: Human HepG2 (ATCC) cells were grown in Eagle's Minimum Essential Media (MEM) containing 10% heat inactivated Fetal Bovine Serum (FBS) (Invitrogen) and 5 mL Penicillin-Streptomycin (Invitrogen) in T75 flasks (Corning) in a 37° C./5% CO2 tissue culture incubator (Thermo Electron Corporation) prior to the study. 96-well plates (Corning) were seeded in MEM containing 10% FBS to yield ˜50% confluency. The following day, cells were transfected using FuGENE 6 transfection reagent (Roche) and […] GATA Translucent Reporter Vector (Panomics) according the manufacturer's (Roche) protocol and incubated for about 10-19 h. The next day, the cells were treated with equal volumes of vehicle, dimethyl sulfoxide (DMSO) (Hybri-Max Sterile Filtered Sigma Aldrich) or compounds of formula (I) (in DMSO) diluted in MEM containing 1% FBS. The treated cells were incubated about 8-19 h. The next day the treatment media was removed and the cells were lysed and assayed for luciferase activity using the luciferase assay system (Promega) and using the Envision plate reader (Perkin Elmer). The lysates were also used to measure total protein content with the MicroBCA protein assay kit (Pierce) using the Multiskan Ascent plate reader at 570 nm. Luciferase values were normalized to total protein and fold induction was calculated.
Compounds that show an increase of ≧40% in luciferase levels at ≦20 μm concentration were considered as GATA activators.

SMILES: CC(C)Oc1cc(-c2ccccc2)nc(Nc2ccc(C3(C(=O)O)CCC3)cc2)n1 [Example 68, 1-[4-(4-isopropoxy-6-phenyl-pyrimidin-2-ylamino)-phenyl]-cyclobutane-carboxylic acid]
- GATA1 Activation (Fold Change Vs Control) (5μ compound): 2.57 Fold
- GATA1 Activation (Fold Change Vs Control) (10μ compound): 2.44 Fold

SMILES: Cc1noc(C)c1-c1cc(N2CCOCC2)nc(Nc2ccc(C3(C(=O)O)CCC3)cc2)n1 [Example 30, 1-{4-[4-(3,5-dimethyl-isoxazol-4-yl)-6-morpholin-4-yl-pyrimidin-2-ylamino]-phenyl}-cyclobutanecarboxylic acid]
- GATA1 Activation (Fold Change Vs Control) (5μ compound): 1.64 Fold
- GATA1 Activation (Fold Change Vs Control) (10μ compound): 1.74 Fold

SMILES: O=C(O)C1(c2ccc(Nc3nc(NC4CCCC4)cc(C4CCCC4)n3)cc2)CCC1 [Example 25, 1-[4-(4-cyclopentyl-6-cyclopentylamino-pyrimidin-2-ylamino)-phenyl]-cyclobutanecarboxylic acid]
- GATA1 Activation (Fold Change Vs Control) (5μ compound): 3.69 Fold
- GATA1 Activation (Fold Change Vs Control) (10μ compound): 3.32 Fold

SMILES: CC(C)(C)Nc1nc(Nc2ccc(C3(C(=O)O)CCC3)cc2)cc(-c2ccccc2)n1 [Example 55, 1-[4-(2-tert-butylamino-6-phenyl-pyrimidin-4-ylamino)-phenyl]-cyclobutane-carboxylic acid]
- GATA1 Activation (Fold Change Vs Control) (5μ compound): 2.86 Fold
- GATA1 Activation (Fold Change Vs Control) (10μ compound): 2.40 Fold

SMILES: O=C(O)C1(c2ccc(Nc3nc(NC4CCCC4)cc(-c4ccccc4)n3)cc2)CCC1 [Example 16, 1-[4-(4-cyclopentylamino-6-phenyl-pyrimidin-2-ylamino)-phenyl]-cyclobutane-carboxylic acid]
- GATA1 Activation (Fold Change Vs Control) (5μ compound): 2.44 Fold
- GATA1 Activation (Fold Change Vs Control) (10μ compound): 2.13 Fold
